Data on 16 compounds can be found in patent US20250368625A1, “PIPERAZINES” (Grünenthal GmbH, priority 2024, published 2025).

T1 sequence (P31391 whole entry): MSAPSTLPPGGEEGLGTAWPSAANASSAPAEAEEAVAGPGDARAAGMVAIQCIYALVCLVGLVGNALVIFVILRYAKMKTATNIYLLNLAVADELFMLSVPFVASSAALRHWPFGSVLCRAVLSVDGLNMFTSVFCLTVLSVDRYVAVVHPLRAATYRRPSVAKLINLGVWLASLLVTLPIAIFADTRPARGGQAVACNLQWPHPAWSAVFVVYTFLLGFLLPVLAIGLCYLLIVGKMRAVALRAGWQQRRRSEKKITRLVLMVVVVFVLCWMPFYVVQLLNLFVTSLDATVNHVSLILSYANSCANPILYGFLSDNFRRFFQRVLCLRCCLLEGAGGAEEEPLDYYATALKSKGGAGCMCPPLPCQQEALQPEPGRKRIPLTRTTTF

This assay concerns the target T1, human SSTR4 (Homo sapiens, UniProt P31391).
T1 construct: expressed in transfected cells; host or cells: CHO-K1
As to the kind of experiment: hSSTR4 cAMP assay (cAMP accumulation, LANCE Ultra cAMP kit, CHO-K1 human SSTR4 Gi cell line). It counts as cell-based. The conditions noted are these: functional agonism, forskolin 10 μM stimulated CHO-K1 human SSTR4 Gi cells, 30 min at 25° C., at least duplicate, averaged; read-out: hSSTR4 EC50. The method, boiled down: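 CHO-K1 cells expressing human SSTR4 (Gi), pre-cultured 18-20 h or thawed and used directly, stimulated with 10 μM forskolin plus test agonist in concentration series, 30 min at 25° C. Lysate cAMP read by TR-FRET (Eu-cAMP tracer/ULight-anti-cAMP, 1 h, 25° C). Normalized to forskolin-only and forskolin+100 nM SST14 controls, 4-parameter fit; ≥duplicate, averaged.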
For `Cc1cccn2c(C(C)(C)NC(=O)[C@@H]3CNCCN3C)nc(C)c12` [SC-114, (S)-N-(2-(1,8-dimethylimidazo[1,5-a]pyridin-3-yl)propan-2-yl)-1-methylpiperazine-2-carboxamide], the half-maximal effective concentration (EC50) is 0.38 nM.

Take `Cc1cccn2c(C(C)(C)NC(=O)[C@@H]3CNCCN3CC3CC(F)(F)C3)nc(C)c12` [SC-115, (S)-1-((3,3-difluorocyclobutyl)methyl)-N-(2-(1,8-dimethylimidazo[1,5-a]pyridin-3-yl)propan-2-yl)piperazine-2-carboxamide]: the half-maximal effective concentration (EC50) is 0.34 nM.

As for `Cc1cccn2c(C(C)(C)NC(=O)[C@@H]3CN(C)CCN3)nc(C)c12` [SC-116, (S)-N-(2-(1,8-dimethylimidazo[1,5-a]pyridin-3-yl)propan-2-yl)-4-methylpiperazine-2-carboxamide], the concentration giving a half-maximal response (EC50) amounted to 32 nM.

Take `Cc1cccn2c(C(C)(C)NC(=O)[C@@H]3CNCCN3Cc3cnn(C)c3)nc(C)c12` [SC-117, (S)-N-(2-(1,8-dimethylimidazo[1,5-a]pyridin-3-yl)propan-2-yl)-1-((1-methyl-1H-pyrazol-4-yl)methyl)piperazine-2-carboxamide]: the half-maximal effective concentration (EC50) stood at 1.6 nM.

In the case of `CN1CCNC[C@H]1C(=O)NC(C)(C)c1ncc2c(C3CC3)cccn12` [SC-118, (S)-N-(2-(8-cyclopropylimidazo[1,5-a]pyridin-3-yl)propan-2-yl)-1-methylpiperazine-2-carboxamide], the EC50 is 15 nM.

For `CN1CCN[C@H](C(=O)NC(C)(C)c2ncc3c(C4CC4)cccn23)C1` [SC-119, (S)-N-(2-(8-cyclopropylimidazo[1,5-a]pyridin-3-yl)propan-2-yl)-4-methylpiperazine-2-carboxamide], the half-maximal effective concentration (EC50) was 540 nM.

In the case of `Cn1cc(CN2CCNC[C@H]2C(=O)NC(C)(C)c2ncc3c(C4CC4)cccn23)cn1` [SC-120, (S)-N-(2-(8-cyclopropylimidazo[1,5-a]pyridin-3-yl)propan-2-yl)-1-((1-methyl-1H-pyrazol-4-yl)methyl)piperazine-2-carboxamide], the EC50 is 53 nM.

`CC(C)(NC(=O)[C@@H]1CNCCN1CC1CC(F)(F)C1)c1ncc2c(C3CC3)cccn12` [SC-121, (S)-N-(2-(8-cyclopropylimidazo[1,5-a]pyridin-3-yl)propan-2-yl)-1-((3,3-difluorocyclobutyl)methyl)piperazine-2-carboxamide]: the half-maximal effective concentration (EC50) was 16 nM.

As to `Cc1cccc2c(C(C)(C)NC(=O)[C@@H]3CNCCN3CC3COC3)n[nH]c12` [SC-122, (S)—N-(2-(7-methyl-1H-indazol-3-yl)propan-2-yl)-1-(oxetan-3-ylmethyl)piperazine-2-carboxamide], the EC50 stood at 1.2 nM.

For the compound `Cn1nc(C(C)(C)NC(=O)[C@@H]2CNCCN2CC2COC2)c2ccccc21` [SC-123, (S)—N-(2-(1-methyl-1H-indazol-3-yl)propan-2-yl)-1-(oxetan-3-ylmethyl)piperazine-2-carboxamide], the EC50 amounted to 7.1 nM.

`Cc1cccc2c(C(C)(C)NC(=O)[C@@H]3CNCCN3C)noc12` [SC-124, (S)-1-methyl-N-(2-(7-methylbenzo[d]isoxazol-3-yl)propan-2-yl)piperazine-2-carboxamide]: the concentration giving a half-maximal response (EC50) was 4.7 nM.

As to `CN1CCNC[C@H]1C(=O)NC(C)(C)c1nnc2c(Cl)cccn12` [SC-125, (S)-N-(2-(8-chloro-[1,2,4]triazolo[4,3-a]pyridin-3-yl)propan-2-yl)-1-methylpiperazine-2-carboxamide], the EC50 turned out to be 1110 nM.

On to `Cc1cccc2c(C(C)(C)NC(=O)[C@@H]3CNCCN3C)nn(C)c12` [SC-126, (S)-N-(2-(1,7-dimethyl-1H-indazol-3-yl)propan-2-yl)-1-methylpiperazine-2-carboxamide], for which the EC50 came to 2.6 nM.

Take `Cc1cccn2c(C(C)(C)NC(=O)[C@@H]3CNCCN3CC(F)F)ncc12` [SC-127, (S)-1-(2,2-difluoroethyl)-N-(2-(8-methylimidazo[1,5-al]pyridin-3-yl)propan-2-yl)piperazine-2-carboxamide]: the concentration giving a half-maximal response (EC50) is 1.1 nM.

For `COc1cccn2c(C(C)(C)NC(=O)[C@@H]3CNCCN3C)ncc12` [SC-128, (S)-N-(2-(8-methoxyimidazo[1,5-a]pyridin-3-yl)propan-2-yl)-1-methylpiperazine-2-carboxamide], the EC50 is 3.8 nM.

Regarding `CN1CCNC[C@H]1C(=O)NC(C)(C)c1n[nH]c2c(F)cccc12` [SC-129, (S)-N-(2-(7-fluoro-1H-indazol-3-yl)propan-2-yl)-1-methylpiperazine-2-carboxamide], the EC50 was determined as 2.8 nM.
